Consider 3 compounds from patent US7094414B2, “Famotidine injections” (Astellas Pharma Inc., priority 2000, dated 2006).

The nature of data set [1]: Kinematic viscosity of aqueous solutions of non-aqueous solvents (25° C.). The data set is classed as physicochemical. The source says: The “kinematic viscosity” herein is a value obtained by dividing viscosity of a liquid by its density and means a value measured using an Ubbelohde viscometer in accordance with Japanese Pharmacopoeia viscosity measuring method. In the invention, according to Japanese Pharmacopoeia, centistokes in CGS system is used as a unit.
These water-soluble acid amides may be used singly or as a mixture of two or more of them. Furthermore, within a range imparting no serious influence on viscosity, in addition to these, water-soluble non-aqueous solvents shown in JP-A-11-193233, for example, those described in the following Table 1 may be used as auxiliary solubilizing means.

The conditions of data set [2]: as described in JP-B-63-65047; cited from earlier work.

Molecules are shown by their SMILES. Some results are limits rather than exact numbers.

As for `CCO` [Ethanol], the “Kinematic viscosity of aqueous solution” value in data set [1] (concentration 5% (W/V)) is on record as 1.082 Centistokes; in data set [1] (concentration 10% (W/V)), 1.300 Centistokes; in data set [1] (concentration 15% (W/V)), 1.577 Centistokes; in data set [1] (concentration 20% (W/V)), 1.857 Centistokes; in data set [1] (concentration 37% (W/V)), 2.479 Centistokes.

For the compound `NC(N)=Nc1nc(CSCCC(N)=NS(N)(=O)=O)cs1` [Famotidine], the water-solubility in data set [2] is given as ≤ 0.1 w/v %.

`CC(O)CO` (centres unmarked) [Propylene glycol]: the “Kinematic viscosity of aqueous solution” value was found to be 1.067 Centistokes in data set [1] (concentration 5% (W/V)); 1.247 Centistokes in data set [1] (concentration 10% (W/V)); 1.455 Centistokes in data set [1] (concentration 15% (W/V)); 1.729 Centistokes in data set [1] (concentration 20% (W/V)); 3.048 Centistokes in data set [1] (concentration 37% (W/V)).
